Test results taken from patent publication US4822774A, “Physiologically active peptide” (Eisai Co., Ltd., priority 1986, dated 1989).

System: Muscle of Bronchus Removed from Guinea Pig
Details: guinea pig trachea, 6.5×10^-6 M histamine; samples at 10^-5 M; area value of VIP--NH2 taken as 100 %
Description: A. Determination on Relaxation of Muscle of Bronchus Removed from Guinea Pig
The juglar vein of a male guinea pig weighing 300 g or more is cut, causing the guinea pig to be bled to death. The guinea pig undergoes thoracotomy. Immediately after the thoracotomy, 3 cm of the trachea is taken out. The trachea is immediately put in a Krebs solution. It is then cut into seven equal rings, and the cartilages are connected to one another with a cotton yarn to form a chain. Subsequently, the smooth muscle parts and cartilages opposite them are cut, so that the smooth muscle parts can be connected to one another. The preparation thus prepared is placed in an isothermic glass cell having an internal capacity of about 7 ml and suspended from above. The lower part of the preparation is fixed, while the upper part is connected to an isometric transducer, to which 0.5 g of a load has been applied, in order to determine the relaxation reaction. Sufficient amounts of 95 % oxygen and 5 % carbon dioxide gas are blown into the preparation. Further, a Krebs solution of 37° C. containing 6.5×10^-6 M histamine is dropped on the preparation from above at a flow rate of 3.3 ml/min. The relaxation reaction takes place to an extent proportional to the amount of a sample added to the dropped solution. By utilizing this relationship, the relaxation activity against bronchial smooth muscle with respect to the substance of the present invention is compared with that of VIP--NH2. VIP--NH2 is used at a concentration of 10^-5 M and dropped in amounts of 40 μl and 80 μl. The substance of the present invention is also used at a concentration of 10^- 5 M and dropped in amounts of 10 μl and 20 μl. The value of the area (height×time) in relaxation of each case is determined. The specific activities are obtained by taking the area value of VIP--NH2 as 100 % and determining the relative ratio of the area value of each use. Thus, the relaxation reactions are compared by the four-point assay method, with respect to the above-mentioned determination method, reference may be made to the following articles (e) and (f): […]

| SMILES | A: specific activity (%) obtained by method A (relaxation of bronchial smooth muscle, area value relative to VIP-NH2) [%] |
| --- | --- |
| CC[C@H](C)[C@H](NC(=O)[C@H](CO)NC(=O)[C@H](CC(N)=O)NC(=O)[C@H](CC(C)C)NC(=O)[C@H](Cc1ccc(O)cc1)NC(=O)[C@H](CCCCN)NC(=O)[C@H](CCCCN)NC(=O)[C@@H](NC(=O)[C@H](C)NC(=O)[C@H](CCSC)NC(=O)[C@H](CCC(N)=O)NC(=O)[C@H](CCCCN)NC(=O)[C@H](CCCNC(=N)N)NC(=O)[C@H](CC(C)C)NC(=O)[C@H](CCCNC(=N)N)NC(=O)[C@@H](NC(=O)[C@H](Cc1ccc(O)cc1)NC(=O)[C@H](CC(N)=O)NC(=O)[C@H](CC(=O)O)NC(=O)[C@@H](NC(=O)[C@H](Cc1ccccc1)NC(=O)[C@@H](NC(=O)[C@H](C)NC(=O)[C@H](CC(=O)O)NC(=O)[C@H](CO)NC(=O)[C@@H](N)Cc1c[nH]cn1)C(C)C)[C@@H](C)O)[C@@H](C)O)C(C)C)C(=O)N[C@@H](CC(C)C)C(=O)N[C@@H](CC(N)=O)C(=O)O [VIP - OH] | 60 |
| CC[C@H](C)[C@H](NC(=O)[C@H](CO)NC(=O)[C@H](CC(N)=O)NC(=O)[C@H](CC(C)C)NC(=O)[C@H](Cc1ccc(O)cc1)NC(=O)[C@H](CCCCN)NC(=O)[C@H](CCCCN)NC(=O)[C@@H](NC(=O)[C@H](C)NC(=O)[C@H](CCSC)NC(=O)[C@H](CCC(N)=O)NC(=O)[C@H](CCCCN)NC(=O)[C@H](CCCNC(=N)N)NC(=O)[C@H](CC(C)C)NC(=O)[C@H](CCCNC(=N)N)NC(=O)[C@@H](NC(=O)[C@H](Cc1ccc(O)cc1)NC(=O)[C@H](CC(N)=O)NC(=O)[C@H](CC(=O)O)NC(=O)[C@@H](NC(=O)[C@H](Cc1ccccc1)NC(=O)[C@@H](NC(=O)[C@H](C)NC(=O)[C@H](CC(=O)O)NC(=O)[C@H](CO)NC(=O)[C@@H](N)Cc1c[nH]cn1)C(C)C)[C@@H](C)O)[C@@H](C)O)C(C)C)C(=O)N[C@@H](CC(C)C)C(=O)N[C@@H](CC(N)=O)C(=O)NCC(=O)N[C@@H](CCCCN)C(=O)O [X=Met Y=Lys--OH] | 300 |
| CC[C@H](C)[C@H](NC(=O)[C@H](CO)NC(=O)[C@H](CC(N)=O)NC(=O)[C@H](CC(C)C)NC(=O)[C@H](Cc1ccc(O)cc1)NC(=O)[C@H](CCCCN)NC(=O)[C@H](CCCCN)NC(=O)[C@@H](NC(=O)[C@H](C)NC(=O)[C@H](CCSC)NC(=O)[C@H](CCC(N)=O)NC(=O)[C@H](CCCCN)NC(=O)[C@H](CCCNC(=N)N)NC(=O)[C@H](CC(C)C)NC(=O)[C@H](CCCNC(=N)N)NC(=O)[C@@H](NC(=O)[C@H](Cc1ccc(O)cc1)NC(=O)[C@H](CC(N)=O)NC(=O)[C@H](CC(=O)O)NC(=O)[C@@H](NC(=O)[C@H](Cc1ccccc1)NC(=O)[C@@H](NC(=O)[C@H](C)NC(=O)[C@H](CC(=O)O)NC(=O)[C@H](CO)NC(=O)[C@@H](N)Cc1c[nH]cn1)C(C)C)[C@@H](C)O)[C@@H](C)O)C(C)C)C(=O)N[C@@H](CC(C)C)C(=O)N[C@@H](CC(N)=O)C(N)=O [VIP - NH2] | 100 |
